Assay results as given in PubChem BioAssay (NCI).
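Growth conditions: 96-well plates. Treatment: test compound, 48 hours, 5 concentrations. Analysis: linear interpolation between bracketing concentrations; unreached endpoints set to highest concentration. At the GI50, growth is halved. Definition used: TGI = concentration required for complete inhibition of growth.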

How the values were obtained:
Assay in all cases: inhibition of tumour cell growth, NCI panel, 48 h
786-0 renal = test system: 786-0 renal
A498 renal = test system: A498 renal
A549 NSCLC = test system: A549 NSCLC
ACHN renal = test system: ACHN renal
BT-549 breast = test system: BT-549 breast
CAKI-1 renal = test system: CAKI-1 renal
COLO 205 colon = test system: COLO 205 colon
DU-145 prostate = test system: DU-145 prostate
EKVX NSCLC = test system: EKVX NSCLC
HCT-116 colon = test system: HCT-116 colon
HCT-15 colon = test system: HCT-15 colon
HL-60(TB) leukemia = test system: HL-60(TB) leukemia
HOP-62 NSCLC = test system: HOP-62 NSCLC
HOP-92 NSCLC = test system: HOP-92 NSCLC
HS 578T breast = test system: HS 578T breast
HT29 colon = test system: HT29 colon
IGROV1 ovarian = test system: IGROV1 ovarian
K-562 leukemia = test system: K-562 leukemia
KM12 colon = test system: KM12 colon
LOX IMVI melanoma = test system: LOX IMVI melanoma
M14 melanoma = test system: M14 melanoma
MCF7 breast = test system: MCF7 breast
MDA-MB-231 breast = test system: MDA-MB-231 breast
MDA-MB-435 = test system: MDA-MB-435
MOLT-4 leukemia = test system: MOLT-4 leukemia
NCI-H226 lung = test system: NCI-H226 lung
NCI-H23 lung = test system: NCI-H23 lung
NCI-H460 lung = test system: NCI-H460 lung
NCI-H522 lung = test system: NCI-H522 lung
NCI/ADR-RES ovarian = test system: NCI/ADR-RES ovarian
OVCAR-3 ovarian = test system: OVCAR-3 ovarian
OVCAR-4 ovarian = test system: OVCAR-4 ovarian
OVCAR-5 ovarian = test system: OVCAR-5 ovarian
OVCAR-8 ovarian = test system: OVCAR-8 ovarian
PC-3 prostate = test system: PC-3 prostate
RPMI-8226 leukemia = test system: RPMI-8226 leukemia
RXF 393 renal = test system: RXF 393 renal
SF-268 CNS = test system: SF-268 CNS
SF-295 CNS = test system: SF-295 CNS
SF-539 CNS = test system: SF-539 CNS
SK-MEL-2 melanoma = test system: SK-MEL-2 melanoma
SK-MEL-28 melanoma = test system: SK-MEL-28 melanoma
SK-MEL-5 melanoma = test system: SK-MEL-5 melanoma
SK-OV-3 ovarian = test system: SK-OV-3 ovarian
SN12C renal = test system: SN12C renal
SNB-19 CNS = test system: SNB-19 CNS
SNB-75 CNS = test system: SNB-75 CNS
SR leukemia = test system: SR leukemia
SW-620 colon = test system: SW-620 colon
TK-10 renal = test system: TK-10 renal
U251 CNS = test system: U251 CNS
UACC-257 melanoma = test system: UACC-257 melanoma
UACC-62 melanoma = test system: UACC-62 melanoma
UO-31 renal = test system: UO-31 renal

Nc1cc(N)c2nc(-c3ccccc3)c(NCc3ccc(F)cc3)nc2c1
GI50 (786-0 renal): 23.7 µM
TGI (786-0 renal): 62.2 µM
GI50 (A498 renal): 16.8 µM
TGI (A498 renal): 31 µM
GI50 (A549 NSCLC): 17.6 µM
TGI (A549 NSCLC): 34.9 µM
GI50 (ACHN renal): 1.71 µM
TGI (ACHN renal): 3.11 µM
GI50 (BT-549 breast): 1.69 µM
TGI (BT-549 breast): 3.26 µM
GI50 (CAKI-1 renal): 15.3 µM
TGI (CAKI-1 renal): 37.1 µM
GI50 (COLO 205 colon): 2.53 µM
TGI (COLO 205 colon): 6.18 µM
GI50 (DU-145 prostate): 1.5 µM
TGI (DU-145 prostate): 3.81 µM
GI50 (EKVX NSCLC): 1.89 µM
TGI (EKVX NSCLC): 4.07 µM
GI50 (HCT-116 colon): 12.8 µM
TGI (HCT-116 colon): > 100 µM
GI50 (HCT-15 colon): 3.34 µM
TGI (HCT-15 colon): 19.1 µM
GI50 (HL-60(TB) leukemia): 3.85 µM
TGI (HL-60(TB) leukemia): > 100 µM
GI50 (HOP-62 NSCLC): 39.1 µM
TGI (HOP-62 NSCLC): > 100 µM
GI50 (HOP-92 NSCLC): 3.32 µM
TGI (HOP-92 NSCLC): 6.91 µM
GI50 (HS 578T breast): 4.86 µM
TGI (HS 578T breast): > 100 µM
GI50 (HT29 colon): 3.19 µM
TGI (HT29 colon): 12.5 µM
GI50 (IGROV1 ovarian): 3.11 µM
TGI (IGROV1 ovarian): > 100 µM
GI50 (K-562 leukemia): 4.39 µM
TGI (K-562 leukemia): > 100 µM
GI50 (KM12 colon): 2.82 µM
TGI (KM12 colon): 7.38 µM
GI50 (LOX IMVI melanoma): 1.52 µM
TGI (LOX IMVI melanoma): 3.17 µM
GI50 (M14 melanoma): 23.7 µM
TGI (M14 melanoma): 55.9 µM
GI50 (MCF7 breast): 2.99 µM
TGI (MCF7 breast): > 100 µM
GI50 (MDA-MB-231 breast): 2.13 µM
TGI (MDA-MB-231 breast): 5.08 µM
GI50 (MDA-MB-435): 2.01 µM
TGI (MDA-MB-435): 3.74 µM
GI50 (MOLT-4 leukemia): > 100 µM
TGI (MOLT-4 leukemia): > 100 µM
GI50 (NCI-H226 lung): 22.4 µM
TGI (NCI-H226 lung): 47.7 µM
GI50 (NCI-H23 lung): 2.38 µM
TGI (NCI-H23 lung): 4.6 µM
GI50 (NCI-H460 lung): 4.05 µM
TGI (NCI-H460 lung): 25.6 µM
GI50 (NCI-H522 lung): > 100 µM
TGI (NCI-H522 lung): > 100 µM
GI50 (NCI/ADR-RES ovarian): 2.46 µM
TGI (NCI/ADR-RES ovarian): 5.76 µM
GI50 (OVCAR-3 ovarian): 2.39 µM
TGI (OVCAR-3 ovarian): 6.42 µM
GI50 (OVCAR-4 ovarian): 1.69 µM
TGI (OVCAR-4 ovarian): 8.08 µM
GI50 (OVCAR-5 ovarian): 2.62 µM
TGI (OVCAR-5 ovarian): 7.61 µM
GI50 (OVCAR-8 ovarian): 2.66 µM
TGI (OVCAR-8 ovarian): 6.07 µM
GI50 (PC-3 prostate): 3.5 µM
TGI (PC-3 prostate): 15.6 µM
GI50 (RPMI-8226 leukemia): 2.54 µM
TGI (RPMI-8226 leukemia): 6.25 µM
GI50 (RXF 393 renal): 12.3 µM
TGI (RXF 393 renal): 27.2 µM
GI50 (SF-268 CNS): 2.81 µM
TGI (SF-268 CNS): 7.54 µM
GI50 (SF-295 CNS): 3.5 µM
TGI (SF-295 CNS): 13.6 µM
GI50 (SF-539 CNS): 1.83 µM
TGI (SF-539 CNS): 3.54 µM
GI50 (SK-MEL-2 melanoma): 5.21 µM
TGI (SK-MEL-2 melanoma): > 100 µM
GI50 (SK-MEL-28 melanoma): 1.9 µM
TGI (SK-MEL-28 melanoma): 3.77 µM
GI50 (SK-MEL-5 melanoma): 1.88 µM
TGI (SK-MEL-5 melanoma): 3.61 µM
GI50 (SK-OV-3 ovarian): 12.9 µM
TGI (SK-OV-3 ovarian): 26.4 µM
GI50 (SN12C renal): 7.5 µM
TGI (SN12C renal): 23.7 µM
GI50 (SNB-19 CNS): 6.68 µM
TGI (SNB-19 CNS): 20.1 µM
GI50 (SNB-75 CNS): 2.16 µM
TGI (SNB-75 CNS): 5.06 µM
GI50 (SR leukemia): 4.11 µM
TGI (SR leukemia): > 100 µM
GI50 (SW-620 colon): 2.21 µM
TGI (SW-620 colon): 9.52 µM
GI50 (TK-10 renal): 5.83 µM
TGI (TK-10 renal): 19.8 µM
GI50 (U251 CNS): 1.6 µM
TGI (U251 CNS): 3.16 µM
GI50 (UACC-257 melanoma): 2.02 µM
TGI (UACC-257 melanoma): 4.26 µM
GI50 (UACC-62 melanoma): 15.4 µM
TGI (UACC-62 melanoma): 29.5 µM
GI50 (UO-31 renal): 3.81 µM
TGI (UO-31 renal): > 100 µM
